Measured values published in US9232799B2, “N-[(het)arylethyl)] pyrazole(thio)carboxamides and their heterosubstituted analogues” (BAYER INTELLECTUAL PROPERTY GMBH, priority 2010, dated 2016).

Assays:
Alternaria solani = experiment: In vivo preventive test on Alternaria solani (tomato); details: 500 ppm of active ingredient, evaluated 7 days after inoculation
Text: One day after this treatment, the plants are inoculated with an aqueous spore suspension of Alternaria solani.

Pyrenophora teres = experiment: In vivo preventive test on Pyrenophora teres (barley); details: 500 ppm of active ingredient, evaluated 7-9 days after inoculation
Text: One day after this treatment, the plants are inoculated with an aqueous spore suspension of Pyrenophora teres.

[1] = logP by HPLC on reversed-phase column (C 18), EEC Directive 79/831 Annex V.A8; assay type: physicochemical
Description: In table 1, the logP values were determined in accordance with EEC Directive 79/831 Annex V.A8 by HPLC (High Performance Liquid Chromatography) on a reversed-phase column (C 18), using the method described below: Temperature: 40° C.; […]

Sphaerotheca fuliginea = experiment: In vivo preventive test on Sphaerotheca fuliginea (cucumber); details: 500 ppm of active ingredient, evaluated 7 days after inoculation
Text: One day after this treatment, the plants are inoculated with an aqueous spore suspension of Sphaerotheca fuliginea.

Fusarium graminearum = experiment: microbe, parasite or virus in culture; assay type: cell-based; details: 50 μM
aflatoxines production = experiment: microbe, parasite or virus in culture; assay type: cell-based, Aspergillus parasiticus; details: 50 μM
Leptosphaeria nodorum = experiment: In vivo preventive test on Leptosphaeria nodorum (wheat); details: 500 ppm of active ingredient, evaluated 7-9 days after inoculation
Text: One day after this treatment, the plants are inoculated with an aqueous spore suspension of Leptosphaeria nodorum.

Structure (SMILES) | Efficacy (Alternaria solani) [%] | Efficacy (Pyrenophora teres) [%] | logP [1] | Efficacy (Sphaerotheca fuliginea) [%] | % Inhibition of fungal growth at 50 μM (Fusarium graminearum) [%] | % Inhibition of Aflatoxin at 50 μM (aflatoxines production) [%] | Efficacy (Leptosphaeria nodorum) [%]
CC(Cc1ccc(Cl)cc1Cl)NC(=O)c1c(C(F)F)nn(C)c1Cl (stereo not drawn) [Example 68] | 95 | 100 | 3.67 | 99 | 100 | 100 | 
CC(Cc1ccccc1F)N(C(=O)c1c(C(F)F)nn(C)c1F)C1CC1 (stereo not drawn) [Example 19] | 100 | 100 | 3.37 |  | 100 | 100 | 70
COC(CNC(=S)c1c(C(F)F)nn(C)c1F)c1cc(Cl)cc(Cl)c1 (stereo not drawn) [Example 110] | 80 | 100 | 4.19 | 75 |  |  | 
CN(CCc1cc(Cl)ccc1Cl)C(=S)c1c(C(F)F)nn(C)c1F [Example 96] | 95 | 100 | 3.87 |  | 82 | 100 | 90
Cn1nc(C(F)F)c(C(=O)NC(C)(C)Cc2ccc(Oc3ccccc3)cc2)c1Cl [Example 153] | 95 | 80 | 4.39 | 93 |  |  | 
CC(CN(C(=S)c1c(C(F)F)nn(C)c1Cl)C1CC1)c1ccccc1 (stereo not drawn) [Example 16] | 95 | 100 | 4.11 |  |  |  | 95
CC(Cc1ccc(Cl)cc1Cl)NC(=S)c1c(C(F)F)nn(C)c1Cl (stereo not drawn) [Example 69] | 94 |  | 4.29 | 95 | 86 | 100 | 
Cn1nc(C(F)F)c(C(=O)N(C2CC2)C2CCCCC2c2ccc(Cl)cc2Cl)c1F (stereo not drawn) [Example 217] |  |  | 5.05 | 99 |  |  | 
Cn1nc(C(F)F)c(C(=O)NC(C)(C)Cc2ccc(Oc3ccccc3)cc2)c1F [Example 150] | 95 | 78 | 4.19 | 100 |  |  | 
Cn1nc(C(F)F)c(C(=O)NCC(C)(C)c2cc(Cl)ccc2Cl)c1Cl [Example 101] | 100 | 70 | 3.89 | 83 | 86 | 100 | 
Cn1nc(C(F)F)c(C(=O)NC2CC2c2ccccc2C(F)(F)F)c1F (stereo not drawn) [Example 225] | 95 | 100 | 3.00 | 80 | 83 | 97 | 
Cc1scc(CCNC(=O)c2c(C(F)F)nn(C)c2F)c1C [Example 167] | 100 | 100 | 2.82 | 90 | 100 | 100 | 
Cn1nc(C(F)F)c(C(=O)NC2CC2c2cccc(F)c2)c1F (stereo not drawn) [Example 222] |  | 100 | 2.59 |  | 81 | 99 | 90
Cn1nc(C(F)F)c(C(=O)N(C[Si](C)(C)c2ccsc2)C2CC2)c1F [Example 248] | 94 | 100 | 3.55 |  | 100 | 100 | 94
CC(Cc1ccccc1Cl)NC(=S)c1c(C(F)F)nn(C)c1Cl (stereo not drawn) [Example 38] | 89 | 100 | 3.72 | 85 |  |  | 
Cn1nc(C(F)F)c(C(=O)NC2CCCCC2c2ccccc2)c1Cl (stereo not drawn) [Example 215] | 78 | 100 | 3.51 | 93 |  |  | 
Cn1nc(C(F)F)c(C(=O)NCC(C)(C)c2ccc(Cl)cc2Cl)c1F [Example 87] | 95 | 94 | 3.81 |  | 94 | 100 | 70
CC(Cc1ccccc1F)N(C(=S)c1c(C(F)F)nn(C)c1F)C1CC1 (stereo not drawn) [Example 21] | 95 | 100 | 4.01 | 100 |  |  | 
Cn1nc(C(F)F)c(C(=O)N(C2CC2)C2CCCCC2c2ccccc2Cl)c1F (stereo not drawn) [Example 216] | 71 | 95 | 4.49 | 100 | 84 | 100 | 
Cn1nc(C(F)F)c(C(=S)NCCc2ccc(Cl)cc2Cl)c1F [Example 71] | 94 | 100 | 3.99 | 85 |  |  | 
CN(CCc1ccccc1C(F)(F)F)C(=O)c1c(C(F)F)nn(C)c1F [Example 123] | 100 | 95 | 3.00 |  | 100 | 100 | 
CCN(CCc1ccc(Cl)cc1)C(=O)c1c(C(F)F)nn(C)c1F [Example 56] | 100 | 100 | 3.19 |  | 93 | 100 | 
CC(Cc1c(F)cccc1F)N(C(=S)c1c(C(F)F)nn(C)c1F)C1CC1 (stereo not drawn) [Example 28] | 90 | 100 | 3.94 | 100 |  |  | 95
Cn1nc(C(F)F)c(C(=O)NCCc2c(F)c(F)nc(F)c2F)c1F [Example 208] | 95 | 100 | 2.44 |  | 100 | 99 | 
CCC(CNC(=O)c1c(C(F)F)nn(C)c1Cl)c1ncc(C(F)(F)F)cc1Cl (stereo not drawn) [Example 193] | 100 | 100 | 3.73 | 83 | 91 | 100 | 
CC(Cc1ccccc1Cl)NC(=S)c1c(C(F)F)nn(C)c1F (stereo not drawn) [Example 37] | 94 | 100 | 3.61 | 98 | 78 | 94 | 
Cn1nc(C(F)F)c(C(=O)NCC(C)(C)c2cc(Cl)ccc2Cl)c1F [Example 100] | 95 | 94 | 3.68 |  | 85 | 99 | 
CC(Cc1ccc(Oc2ccccc2)cc1)NC(=S)c1c(C(F)F)nn(C)c1F (stereo not drawn) [Example 156] | 89 | 100 | 4.29 | 93 |  |  | 
Cn1nc(C(F)F)c(C(=O)NCCc2cc(Cl)ccc2Cl)c1Cl [Example 91] | 95 | 100 | 3.29 |  | 100 | 100 | 
